Laboratory results: the Kinase Knowledgebase extract (Sharma et al. 2016)

How the values were obtained:
CDK2 [1] = target: CDK2 (UniProt P24941); test: Enzyme Assay
CDK2 [2] = target: CDK2 (UniProt P24941); test: Enzyme Assay; remark: listed apart in the source

SMILES | IC50 (CDK2 [1]) [µM] | IC50 (CDK2 [2]) [µM]
COC(=O)[C@@]1(O)C[C@H]2O[C@]1(C)n1c3ccccc3c3c4c(c5c6ccccc6n2c5c31)C(=O)N[C@H]4CCc1ccccc1 | 3.7 | 
COC(=O)[C@@]1(O)C[C@H]2O[C@]1(C)n1c3ccccc3c3c4c(c5c6ccccc6n2c5c31)C(=O)N[C@H]4CC(C)C | 22 | 0.07
COC(=O)[C@@]1(O)C[C@H]2O[C@]1(C)n1c3ccccc3c3c4c(c5c6ccccc6n2c5c31)C(=O)N[C@H]4Cc1ccccc1 | 1 | 0.15
CCC(C)[C@@H]1NC(=O)c2c1c1c3ccccc3n3c1c1c2c2ccccc2n1[C@H]1C[C@](O)(C(=O)OC)[C@]3(C)O1 (stereo partly drawn) | 5.8 | > 3.7
COC(=O)[C@@]1(O)C[C@H]2O[C@]1(C)n1c3ccccc3c3c4c(c5c6ccccc6n2c5c31)C(=O)N[C@H]4C(C)C | 29 | 1.9
COC(=O)[C@@]1(O)C[C@H]2O[C@]1(C)n1c3ccccc3c3c4c(c5c6ccccc6n2c5c31)C(=O)N[C@@H]4Cc1ccccc1 | 10 | 10
CC(C)(C)n1nc(-c2cccc3ccccc23)c2c(N)ncnc21 | 18 | 0.015
